The nature of the data set: solvent given as SMILES.

`O=P1(c2ccccc2)C(c2ccc(C(F)(F)F)cc2)=Cc2cc3ccccc3cc21` (configuration not stated) returned a fluorescence lifetime (in ClCCl) of 3 ns.
With `C(=C\c1ccnc2ccccc12)/c1c2ccccc2cc2ccccc12`, the fluorescence lifetime by setting is: (in CC1CCCCC1) 2.6 ns; (in CC#N) 0.088 ns.
For the setting “in CO”, `C/C(=N\Nc1ccc(C#N)cc1)c1cccc(/C(C)=N/Nc2ccc(C#N)cc2)c1` came in with a fluorescence lifetime of 1.27 ns.
With `C/C(=N\Nc1ccc(C#N)cc1)c1ccccn1`, under “in CO”, the fluorescence lifetime was 1.69 ns.
Under “in Cc1ccccc1”, `N#CC(C#N)=C(c1ccc(-n2ccc3ccccc32)cc1)c1ccc(-n2ccc3ccccc32)cc1` yielded a fluorescence lifetime of 5.2 ns.
Turning to `COC(=O)c1[nH]c(-c2ccc(OC)cc2)c2nnc3ccc(OC)cc3c12`, the fluorescence lifetime (in ClCCl) was found to be 6.1 ns.
As for `C(=C\c1ccc(N(c2ccccc2)c2ccccc2)cc1)/c1ccccc1`, the fluorescence lifetime by setting is: (in CC#N) 1.37 ns; (in CCCCCC) 0.51 ns.
On to `CC(C)(C)n1c(=O)c2cc3ccc4cccc5ccc(c2c1=O)c3c45`, for which, for the setting “in ClC(Cl)Cl”, the fluorescence lifetime is 4.09 ns.
Consider `C(#Cc1ccc(-n2c3ccccc3c3ccccc32)cc1)c1ccccc1`, for which the fluorescence lifetime is, setting by setting: (in CC#N) 4.36 ns; (in CCCCC) 2.6 ns; (in CO) 3.7 ns; (in Cc1ccccc1) 1.45 ns; (in ClC(Cl)Cl) 1.59 ns; (in ClCCl) 2.53 ns.
With `c1cc2c3c(cccc3c1)C(N1CCOCCOCCN(C3=Nc4cccc5cccc3c45)CCOCC1)=N2`, the fluorescence lifetime (in CC#N) amounted to 0.51 ns.
`CC1(C)c2ccccc2N(c2ccc(-c3nc([C@]45CC6CC(C[C@@H](C6)C4)C5)nc([C@]45C[C@H]6C[C@@H](C[C@H](C6)C4)C5)n3)cc2)c2ccccc21` registered a fluorescence lifetime (in CC(C)(C)c1ccc(-n2c3ccc([Si](c4ccccc4)(c4ccccc4)c4ccccc4)cc3c3cc([Si](c4ccccc4)(c4ccccc4)c4ccccc4)ccc32)cc1) of 14.4 ns.
For the compound `CCCCc1cc(-c2cccc(COC)c2)oc1-c1cccc(-c2cc(CCCC)c(-c3cccc(-c4oc(-c5cccc(-c6oc(-c7cccc(COC)c7)cc6CCCC)c5)cc4CCCC)c3)o2)c1`, the fluorescence lifetime (in ClC(Cl)Cl) was 1.35 ns.
In the case of `c1ccc(-c2nc(-c3ccccc3)nc(-c3ccc(-n4c5ccccc5c5cc(-n6c7ccccc7c7ccccc76)ccc54)cc3)n2)cc1`, the fluorescence lifetime (in Cc1ccccc1) worked out at 6.5 ns.
On to `CC1(C)c2ccccc2N(c2ccc(-c3cccc(C#N)c3)cc2)c2ccccc21`, for which the fluorescence lifetime (in N#Cc1ccc2c(c1)c1ccccc1n2-c1cccc(-n2c3ccccc3c3ccccc32)c1) amounted to 6.53 ns.
In turn, `CCCCCCN(CCCCCC)c1ccc(C#Cc2ccc(C(F)(F)F)cc2)cc1` had a fluorescence lifetime (in ClCCl) of 2.1 ns.
On to `CCCCC(CC)CN1C(=O)c2cc(Oc3ccc(OC)cc3)c3c4c(Oc5ccc(C(C)(C)C)cc5)cc5c6c(cc(Oc7ccc(C(C)(C)C)cc7)c(c7c(Oc8ccc(OC)cc8)cc(c2c37)C1=O)c64)C(=O)N(c1c(C(C)C)cccc1C(C)C)C5=O` (configuration not stated), for which the fluorescence lifetime (in Cc1ccccc1) is 5.32 ns.
For the compound `c1ccc(-n2c(-c3ccc(N(c4ccc(-c5ccc(N(c6ccc(-c7nc8c9ccccc9c9ccccc9c8n7-c7ccccc7)cc6)c6ccc(-c7nc8c9ccccc9c9ccccc9c8n7-c7ccccc7)cc6)cc5)cc4)c4ccc(-c5nc6c7ccccc7c7ccccc7c6n5-c5ccccc5)cc4)cc3)nc3c4ccccc4c4ccccc4c32)cc1`, the fluorescence lifetime (in ClCCl) worked out at 1.68 ns.
Consider `C(=C\c1ccc(Nc2ccccc2)cc1)/c1ccccc1`, for which the fluorescence lifetime worked out at 0.39 ns (in CC#N) and 0.34 ns (in CCCCCC).
As to `CC(C)(C)OC(=O)NC(Cc1ccc2oc(-c3ccccn3)nc2c1)C(=O)O` (configuration not stated), the fluorescence lifetime is, setting by setting: (in CC1CCCCC1) 2.9 ns; (in CC#N) 1.92 ns; (in CO) 1.19 ns.
Consider `CC(C)(C)c1ccc2c(c1)c1cc(C(C)(C)C)ccc1n2-c1ccc(C#Cc2ccc3c4ccc(C#Cc5ccc(C=C(C#N)C#N)cc5)cc4n(-c4ccc(C(F)(F)F)cc4)c3c2)cc1`, for which the fluorescence lifetime (in ClCCl) was determined as 0.29 ns.
`CCCCCCCCCCCCOc1cc2c3c(ccc4c5c(N6CCOCC6)cc6c7c(ccc(c1c34)c75)C(=O)N(C1CCCCC1)C6=O)C(=O)N(C1CCCCC1)C2=O`: where the note is “in ClC(Cl)Cl”, the fluorescence lifetime came to 3.4 ns.
In the case of `COc1ccc(-c2nc3ccccc3nc2/C=C/N2CCCC2)s1`, the fluorescence lifetime was found to be 0.79 ns (in C1CCCCC1); 2.79 ns (in C1CCOC1); 5.78 ns (in CC#N); 5.1 ns (in CC(C)=O); 0.67 ns (in CCO); 0.22 ns (in CO). In addition, the fluorescence lifetime came to 4.88 ns (in CS(C)=O), 1.25 ns (in Cc1ccccc1) and 3.28 ns (in ClCCl).
As to `CN(C)C(=O)c1ccc(-c2nc3ccc(N(C)C)cc3s2)cc1`, under “in C1CCCCC1”, the fluorescence lifetime came out at 2 ns.
On to `COc1cc2c(cc1-c1ccccc1)Cc1c3c(c4c(c1-2)-c1cc(OC)c(-c2ccccc2)cc1C4)C(=O)N(CCC(C)C)C3=O`, for which the fluorescence lifetime is, setting by setting: (in C1CCOC1) 3.87 ns; (in CC#N) 6.33 ns; (in CC(C)=O) 5.36 ns; (in CCOC(C)=O) 3.99 ns; (in CS(C)=O) 6.41 ns; (in Cc1ccccc1) 2.55 ns. The same compound showed a fluorescence lifetime (in ClC(Cl)Cl) of 5.95 ns and a fluorescence lifetime (in ClCCl) of 5.64 ns.
In the case of `C#CCNC1=C2C=C(c3cc4n(c3)[B-](F)(F)[N+]3=CC=CC3=C4c3c(C)cc(C)cc3C)C(C)=[N+]2[B-](F)(F)n2c(C)ccc21`, the fluorescence lifetime worked out at 2.3 ns (in C1CCCCC1) and 0.58 ns (in CCOC(C)=O).
Take `COc1ccsc1-c1ccc(-c2ccc(-c3sccc3OC)s2)s1`: the fluorescence lifetime (in CCC(C)C) came to 0.61 ns.
For `C(#Cc1ccc2c(c1)c1cc(C#Cc3ccccc3)ccc1n2-c1cc2ccccc2c2ccccc12)c1ccccc1`, the fluorescence lifetime (in ClCCl) was determined as 4.27 ns.
As for `Cc1ccc(/C2=C3N=C(C(c4ccccc4)=C/3c3ccccc3)/C(c3ccc(C)cc3)=c3\[nH]/c(c(-c4ccccc4)c3-c3ccccc3)=C(/c3ccc(C)cc3)C3=N/C(=C(/c4ccc(C)cc4)c4[nH]c2c(-c2ccccc2)c4-c2ccccc2)C(c2ccccc2)=C3c2ccccc2)cc1`, for the setting “in ClCCl”, the fluorescence lifetime was found to be 0.472 ns.
For `CC(=O)c1ccc(-c2cc(C)[o+]c(C)c2)cc1`, the fluorescence lifetime (in ClCCl) was found to be 2 ns.
Compound `Cc1ccc(C2=C3C=CC4=[N+]3[P-](=O)(=O)n3c2ccc3-c2ccc([nH]2)/C(c2ccc(C)cc2)=c2/cc/c(o2)=C(\c2ccc(C)cc2)c2ccc4[nH]2)cc1` returned a fluorescence lifetime (in ClC(Cl)Cl) of 4.3 ns.
Under “in CC#N”, `C[n+]1cc2ccc3c[n+](C)c4ccccc4c3c2c2ccccc21` returned a fluorescence lifetime of 5.8 ns.
As to `C(#Cc1ccccc1)c1ccccc1`, under “in ClC(Cl)Cl”, the fluorescence lifetime was determined as 3.89 ns.
Where the note is “in CC#N”, `c1ccc(C[n+]2cc3ccc4c[n+](Cc5ccccc5)cc5ccc(c2)c3c45)cc1` had a fluorescence lifetime of 4.3 ns.
Turning to `CN(C)c1ccc2nc(-c3ccc(C(=O)OC[C@H](NC(=O)OC(C)(C)C)C(=O)OCc4ccccc4)cc3)sc2c1`, the fluorescence lifetime (in C1CCCCC1) is 2.4 ns.
Under “in ClCCl”, `CCOC(=O)/N=c1/oc2c(OC)cccc2cc1C#N` returned a fluorescence lifetime of 0.3 ns.
Regarding `Cc1cc(C)n2c1C=C1c3ccccc3C(c3cccn3C)=[N+]1[B-]2(F)F`, for the setting “in ClCCl”, the fluorescence lifetime turned out to be 6.91 ns.
As to `N#C/C(=C\c1ccc([N+](=O)[O-])cc1)c1nc(-c2ccccc2)cs1`, under “in CC#N”, the fluorescence lifetime was found to be 2.85 ns.
As to `CC1(C)CC(NCc2ccc3ccc4cccc5ccc2c3c45)CC(C)(C)N1`, the fluorescence lifetime runs as follows: (in C1CCCCC1) 61.8 ns; (in CC#N) 26.2 ns; (in CO) 41.9 ns; (in ClC(Cl)Cl) 36.1 ns.
As for `Cc1ccc(C2=C3C=CC(/C=C/c4ccccc4)=[N+]3[B-](F)(F)n3c(Cl)ccc32)cc1`, the fluorescence lifetime by setting is: (in C1CCCCC1) 3.64 ns; (in C1CCOC1) 3.45 ns; (in C1COCCO1) 3.68 ns; (in CCOC(C)=O) 3.43 ns; (in CO) 3.16 ns; (in Cc1ccccc1) 3.68 ns. This compound came in with a fluorescence lifetime (in ClC(Cl)Cl) of 3.98 ns.
With `CC1=CC(C)=[N+]2C1=Cc1cccn1[B-]2(F)F`, the fluorescence lifetime worked out at 6.21 ns (in CCCCCC), 6.34 ns (in CO) and 5.89 ns (in ClCCl).
Under “in CCCCCCC”, `Clc1nc(Cl)nc(Nc2cc3ccc4cccc5ccc(c2)c3c45)n1` gave a fluorescence lifetime of 122 ns.
Turning to `c1ccc(-c2nc(-c3ccc(-c4ccc(-c5nc(-c6ccccc6)c(-c6ccccc6)o5)cc4)cc3)oc2-c2ccccc2)cc1`, the fluorescence lifetime (in C1COCCO1) came to 0.95 ns.
For the compound `CC1(C)c2ccccc2N(c2ccc(-c3nc(-c4ccccc4)cc(-c4ccccc4)n3)cc2)c2ccccc21`, the fluorescence lifetime (in Cc1ccccc1) was 6.48 ns and the fluorescence lifetime (in ClCCl) was determined as 18.2 ns.
Compound `CC(C)(C)c1ccc2c(c1)c1cc(C(C)(C)C)ccc1n2-c1ccc(C#Cc2ccc(C#Cc3ccc(C=C(C#N)C#N)cc3)cc2)cc1` registered a fluorescence lifetime (in ClCCl) of 3.7 ns.
For `O=[N+]([O-])c1cccc2c1ccc1[n+]2[B-](F)(F)n2c-1cc1c3ccccc3c3ccccc3c12`, where the note is “in ClCCl”, the fluorescence lifetime is 2.67 ns.
`CC(=O)Nc1ccc2c3c(cccc13)C(=O)c1ccccc1-2` came in with a fluorescence lifetime (in CC#N) of 10.3 ns; a fluorescence lifetime (in CC(C)=O) of 9.7 ns; a fluorescence lifetime (in CC(C)O) of 9.3 ns; a fluorescence lifetime (in CCCCOCCCC) of 1.9 ns; a fluorescence lifetime (in CCOC(C)=O) of 6.6 ns; a fluorescence lifetime (in CCOCC) of 2.6 ns. The fluorescence lifetime by setting is: (in CO) 8.3 ns; (in Cc1ccccc1) 2.8 ns; (in Clc1ccccc1) 5.9 ns; (in N#Cc1ccccc1) 9.8 ns; (in O=C1CCCCC1) 8.3 ns.
Consider `Nc1ccc(N2C(=O)c3ccc4c5ccc6c7c(ccc(c8ccc(c3c48)C2=O)c75)C(=O)NC6=O)cc1`, for which, under “in CN(C)C=O”, the fluorescence lifetime worked out at 2.9 ns.
On to `COc1ccc(C#Cc2c3cc4ccccc4cc3c(C#Cc3ccc(OC)cc3)c3cc4sc(C)cc4cc23)cc1`, for which the fluorescence lifetime (in ClCCl) came to 11.8 ns.
For the compound `CCCn1c2cccc3oc4cccc5c4[c+](c32)c2c1cccc2n5CCC`, the fluorescence lifetime reads like this: (in CC#N) 19.4 ns; (in CO) 17.8 ns; (in ClCCl) 20.6 ns; (in OCC(O)CO) 18.3 ns.
Take `COCc1ncc(-c2c3ccccc3c(-c3cnc(COC)nc3)c3ccccc23)cn1`: the fluorescence lifetime is, setting by setting: (in CCO) 6.1 ns; (in ClCCl) 6.5 ns.

For the origin of these results see the Deep4Chem optical property database.
